# Patent US9469615B2, “Quinoxalines and AZA-quinoxalines as CRTH2 receptor modulators” (Merck Sharp & Dohme Corp., priority 2010, dated 2016)
# pKi: −log10 of the molar value.
# Target: T1, hCRTH2 (Homo sapiens, UniProt Q9Y5Y4)
# T1 construct: expressed in transfected cells; host or cells: HEK (human embryonic kidney) cells expressing hCRTH2; membrane preparation
# T1 sequence (Q9Y5Y4 1-395): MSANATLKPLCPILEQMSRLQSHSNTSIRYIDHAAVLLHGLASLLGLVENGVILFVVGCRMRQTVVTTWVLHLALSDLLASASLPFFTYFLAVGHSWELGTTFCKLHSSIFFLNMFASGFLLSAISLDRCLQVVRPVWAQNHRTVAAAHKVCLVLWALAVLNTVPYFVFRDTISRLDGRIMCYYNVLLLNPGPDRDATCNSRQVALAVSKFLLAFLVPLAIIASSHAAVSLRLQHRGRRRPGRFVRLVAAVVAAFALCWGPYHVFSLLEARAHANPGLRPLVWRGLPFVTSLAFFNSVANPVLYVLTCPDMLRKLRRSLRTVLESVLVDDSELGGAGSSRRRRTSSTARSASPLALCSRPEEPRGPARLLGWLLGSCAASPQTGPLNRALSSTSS
# Test: Radioligand binding assay ([3H]PGD2 competition, HEK-hCRTH2 membranes)
# Conditions: [3H]PGD2 binding, rated A-E (Table A)
# Outline: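 Membranes (8-20 μg protein) from HEK-hCRTH2 cells were incubated 60 min at room temperature with 3.0 nM [3H]PGD2 in 50 mM Tris-HCl pH 7.4, 1 mM EDTA, 2 mM MnCl2, 1% DMSO. Non-specific binding defined with 10 μM PGD2. Bound radioactivity counted after filtration.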
row,Compound,pKi
1,"C[C@H](NC(=O)c1ccc2nc(-c3ccccc3)c(CCCCC(=O)O)nc2c1)c1ccc(F)cc1 [compound 235, 7-[[[1(S)-(4-fluorophenyl)ethyl]amino]carbonyl]-3-phenyl-2-quinoxalinepentanoic acid]",7.70 to 8.68
2,"C[C@H](c1ccc(F)cc1)N(C)C(=O)c1ccc2nc(-c3ccccc3)c(CCCCC(=O)O)nc2c1 [compound 236, 7-[[[1(R)-(4-fluorophenyl)ethyl]methylamino]carbonyl]-3-phenyl-2-quinoxalinepentanoic acid]",7.70 to 8.68
3,"C[C@@H](c1ccc(F)cc1)N(C)C(=O)c1ccc2nc(-c3ccccc3)c(CCCCC(=O)O)nc2c1 [compound 237, 7-[[[1(S)-(4-fluorophenyl)ethyl]methylamino]carbonyl]-3-phenyl-2-quinoxalinepentanoic acid]",7.70 to 8.68
4,"C[C@@H](c1ccc(Cl)cc1)N(C)C(=O)c1ccc2nc(-c3ccccc3)c(CCCCC(=O)O)nc2c1 [compound 239, 7-[[[1(S)-(4-chlorophenyl)ethyl]methylamino]carbonyl]-3-phenyl-2-quinoxalinepentanoic acid]",7.70 to 8.68
5,"C[C@H](c1ccc(F)cc1)N(C)C(=O)c1ccc2nc(-c3ccc(F)cc3)c(CCCCC(=O)O)nc2c1 [compound 240, 3-(4-fluorophenyl)-7-[[[1(R)-(4-fluorophenyl)ethyl]methylamino]carbonyl]-2-quinoxalinepentanoic acid]",7.70 to 8.68
6,"C[C@@H](c1ccc(F)cc1)N(C)C(=O)c1ccc2nc(-c3ccc(F)cc3)c(CCCCC(=O)O)nc2c1 [compound 241, 3-(4-fluorophenyl)-7-[[[1(S)-(4-fluorophenyl)ethyl]methylamino]carbonyl]-2-quinoxalinepentanoic acid]",7.70 to 8.68
7,"C[C@H](c1ccc(Cl)cc1)N(C)C(=O)c1ccc2nc(-c3ccc(F)cc3)c(CCCCC(=O)O)nc2c1 [compound 242, 7-[[[1(R)-(4-chlorophenyl)ethyl]methylamino]carbonyl]-3-(4-fluorophenyl)-2-quinoxalinepentanoic acid]",7.70 to 8.68
8,"N#Cc1ccc(C2CN(C(=O)c3ccc4nc(-c5ccc(F)cc5)c(CCCCC(=O)O)nc4c3)C2)cc1 [compound 246, 7-[[3-(4-cyanophenyl)-1-azetidinyl]carbonyl]-3-(4-fluorophenyl)-2-quinoxalinepentanoic acid]",8.70 to 10.00
9,"O=C(O)CCCCc1nc2cc(C(=O)N3CC(c4nc5ccccc5[nH]4)C3)ccc2nc1-c1ccccc1 [compound 247, 7-[[3-(1H-benzimidazol-2-yl)-1-azetidinyl]carbonyl]-3-phenyl-2-quinoxalinepentanoic acid]",7.70 to 8.68
10,"O=C(O)CCCCc1nc2cc(C(=O)N3CC(c4ccc(Cl)cc4)C3)ccc2nc1-c1ccccc1 [compound 252, 7-[[3-(4-chlorophenyl)-1-azetidinyl]carbonyl]-3-phenyl-2-quinoxalinepentanoic acid]",8.70 to 10.00
11,"O=C(O)CCCCc1nc2cc(C(=O)N3CC(c4cccc(Cl)c4)C3)ccc2nc1-c1ccccc1 [compound 253, 7-[[3-(3-chlorophenyl)-1-azetidinyl]carbonyl]-3-phenyl-2-quinoxalinepentanoic acid]",8.70 to 10.00
12,"O=C(O)CCCCc1nc2cc(C(=O)N[C@@H]3CCCc4cc(F)ccc43)ccc2nc1-c1ccccc1 [compound 254, 7-[[(6-fluoro-1,2,3,4-tetrahydro-1(R)-naphthalenyl)amino]carbonyl]-3-phenyl-2-quinoxalinepentanoic acid]",8.70 to 10.00
13,"O=C(O)CCCCc1nc2cc(C(=O)N[C@@H]3CCCc4cc(Cl)ccc43)ccc2nc1-c1ccccc1 [compound 255, 7-[[(6-chloro-1,2,3,4-tetrahydro-1(R)-naphthalenyl)amino)carbonyl]-3-phenyl-2-quinoxalinepentanoic acid]",8.70 to 10.00

# Further lines, results first:
row,pKi,Compound
1,7.70 to 8.68,"C[C@H](c1ccc(Cl)cc1)N(C)C(=O)c1ccc2nc(-c3ccccc3)c(CCCCC(=O)O)nc2c1 [compound 238, 7-[[[1(R)-(4-chlorophenyl)ethyl]methylamino]carbonyl]-3-phenyl-2-quinoxalinepentanoic acid]"
2,7.70 to 8.68,"C[C@@H](c1ccc(Cl)cc1)N(C)C(=O)c1ccc2nc(-c3ccc(F)cc3)c(CCCCC(=O)O)nc2c1 [compound 243, 7-[[[1(S)-(4-chlorophenyl)ethyl]methylamino]carbonyl]-3-(4-fluorophenyl)-2-quinoxalinepentanoic acid]"
3,7.70 to 8.68,"O=C(O)CCCCc1nc2cc(C(=O)N3CCC(c4ncccn4)CC3)ccc2nc1-c1ccc(F)cc1 [compound 244, 3-(4-fluorophenyl)-7-[[4-(2-pyrimidinyl)-1-piperidinyl]carbonyl]-2-quinoxalinepentanoic acid]"
4,7.70 to 8.68,"O=C(O)CCCCc1nc2cc(C(=O)N3CCC(c4ncccn4)CC3)ccc2nc1-c1ccccc1 [compound 245, 3-phenyl-7-[[4-(2-pyrimidinyl)-1-piperidinyl]carbonyl]-2-quinoxalinepentanoic acid]"
5,7.70 to 8.68,"O=C(O)CCCCc1nc2cc(C(=O)N3CC(c4nc5ccccc5o4)C3)ccc2nc1-c1ccc(F)cc1 [compound 248, 7-[[3-(2-benzoxazolyl)-1-azetidinyl]carbonyl]-3-(4-fluorophenyl)-2-quinoxalinepentanoic acid]"
6,8.70 to 10.00,"O=C(O)CCCCc1nc2cc(C(=O)N3CC(c4ccc(F)c(F)c4)C3)ccc2nc1-c1ccccc1 [compound 249, 7-[[3-(3,4-difluorophenyl)-1-azetidinyl]carbonyl]-3-phenyl-2-quinoxalinepentanoic acid]"
7,8.70 to 10.00,"O=C(O)CCCCc1nc2cc(C(=O)N3CC(c4ccc(F)cc4)C3)ccc2nc1-c1ccccc1 [compound 250, 7-[[3-(4-fluorophenyl)-1-azetidinyl]carbonyl]-3-phenyl-2-quinoxalinepentanoic acid]"
8,8.70 to 10.00,"O=C(O)CCCCc1nc2cc(C(=O)N3CC(c4cccc(F)c4)C3)ccc2nc1-c1ccccc1 [compound 251, 7-[[3-(3-fluorophenyl)-1-azetidinyl]carbonyl]-3-phenyl-2-quinoxalinepentanoic acid]"

# Same assay, conditions: [3H]PGD2 binding, values in text
row,Compound,pKi
1,"N#Cc1ccc(C2CN(C(=O)c3ccc4nc(-c5ccc(F)cc5)c(CCCCC(=O)O)nc4c3)C2)cc1 [compound 246, 7-[[3-(4-cyanophenyl)-1-azetidinyl]carbonyl]-3-(4-fluorophenyl)-2-quinoxalinepentanoic acid]",8.72
2,"O=C(O)CCCCc1nc2cc(C(=O)N[C@@H]3CCCc4cc(Cl)ccc43)ccc2nc1-c1ccccc1 [compound 255, 7-[[(6-chloro-1,2,3,4-tetrahydro-1(R)-naphthalenyl)amino)carbonyl]-3-phenyl-2-quinoxalinepentanoic acid]",8.82

# Further lines, results first:
row,pKi,Compound
1,9.00,"O=C(O)CCCCc1nc2cc(C(=O)N3CC(c4cccc(F)c4)C3)ccc2nc1-c1ccccc1 [compound 251, 7-[[3-(3-fluorophenyl)-1-azetidinyl]carbonyl]-3-phenyl-2-quinoxalinepentanoic acid]"
2,7.81,"O=C(N[C@@H]1CCCc2cc(F)ccc21)c1ccc2nc(-c3ccc(F)cc3)c(CCC3CC3C(=O)O)nc2c1 (stereo partly drawn) [compound 264, 2-(2-(7-(((R)-6-fluoro-1,2,3,4-tetrahydronaphthalen-l-yl)carbamoyl)-3-(4-fluorophenyl)quinoxalin-2-yl)ethyl)cyclopropanecarboxylic acid]"

# Same assay, conditions: [3H]PGD2 competition, Table B
row,Compound,pKi
1,"O=C(O)CCCCc1nc2cc(C(=O)N[C@@H]3CCCc4ccccc43)ccc2nc1-c1ccccc1 [compound 256, (R)-5-(3-phenyl-7-((1,2,3,4-tetrahydronaphthalen-1-yl)carbamoyl)quinoxalin-2-yl)pentanoic acid]",8.70 to 10.00
2,C[C@H](NC(=O)c1ccc2nc(-c3ccc(Cl)cc3)c(CCCCC(=O)O)nc2c1)c1ccc(C#N)cc1 [compound 257],7.70 to 8.68
3,"O=C(O)Cc1cccc(-c2nc3cc(C(=O)N4CCN(c5ccccc5)CC4)ccc3nc2-c2ccc(Cl)cc2)c1 [compound 259, 2-(3-(3-(4-chlorophenyl)-7-(4-phenylpiperazine-1-carbonyl)quinoxalin-2-yl)phenyl)acetic acid]",6.15 to 6.70
4,"O=C(N[C@@H]1CCCc2cc(F)ccc21)c1ccc2nc(-c3ccc(F)cc3)c(CC[C@H]3C[C@@H]3C(=O)O)nc2c1 [compound 261, (1S,2S)-2-(2-(7-(((R)-6-fluoro-1,2,3,4-tetrahydronaphthalen-1-yl)carbamoyl)-3-(4-fluorophenyl)quinoxalin-2-yl)ethyl)cyclopropane-carboxylic acid]",7.70 to 8.68
5,"O=C(N[C@@H]1CCCc2ccccc21)c1ccc2nc(-c3ccc(F)cc3)c(CC[C@H]3C[C@@H]3C(=O)O)nc2c1 [compound 262, (1S,2S)-2-(2-(3-(4-fluorophenyl)-7-(((R)-1,2,3,4-tetrahydronaphthalen-1-yl)carbamoyl)quinoxalin-2-yl)ethyl)cyclopropanecarboxylic acid]",7.70 to 8.68
6,"C[C@@H]1CN(c2ccc(F)cc2)CCN1C(=O)c1ccc2nc(-c3ccccc3)c(CCCCC(=O)O)nc2c1 [compound 265, (R)-5-(7-(4-(4-fluorophenyl)-2-methylpiperazine-1-carbonyl)-3-phenylquinoxalin-2-yl)pentanoic acid]",7.70 to 8.68

# Other lines, results leading:
row,pKi,Compound
1,7.70 to 8.68,"C[C@@H](CCc1nc2cc(C(=O)N[C@@H]3CCCc4ccccc43)ccc2nc1-c1ccc(F)cc1)CC(=O)O [compound 258, (S)-5-(3-(4-fluorophenyl)-7-(((R)-1,2,3,4-tetrahydronaphthalen-1-yl)carbamoyl)quinoxalin-2-yl)-3-methylpentanoic acid]"
2,7.70 to 8.68,"O=C(N[C@@H]1CCCc2cc(F)ccc21)c1ccc2nc(-c3ccc(F)cc3)c(CC[C@@H]3C[C@H]3C(=O)O)nc2c1 [compound 263, (1R,2R)-2-(2-(7-(((R)-6-fluoro-1,2,3,4-tetrahydronaphthalen-l-yl)carbamoyl)-3-(4-fluorophenyl)quinoxalin-2-yl)ethyl)cyclopropanecarboxylic acid]"
3,7.70 to 8.68,"O=C(N[C@@H]1CCCc2cc(F)ccc21)c1ccc2nc(-c3ccc(F)cc3)c(CCC3CC3C(=O)O)nc2c1 (stereo partly drawn) [compound 264, 2-(2-(7-(((R)-6-fluoro-1,2,3,4-tetrahydronaphthalen-l-yl)carbamoyl)-3-(4-fluorophenyl)quinoxalin-2-yl)ethyl)cyclopropanecarboxylic acid]"
4,7.70 to 8.68,"O=C(O)CCCCc1nc2cc(C(=O)NC3CC(=O)Nc4ccccc43)ccc2nc1-c1ccccc1 (centres unmarked) [compound 266, 5-(7-((2-oxo-1,2,3,4-tetrahydroquinolin-4-yl)carbamoyl)-3-phenylquinoxalin-2-yl)pentanoic acid]"
